Source: ChEMBL document CHEMBL5674888, “PRMT5 Promotes Human Lung Cancer Cell Apoptosis via Akt/Gsk3β Signaling Induced by Resveratrol” (Cell Transplant, 2019)
Active and inactive are the calls of the source.

How the values were obtained:
Type in all cases: functional, cell-based
A549 [1] = assay: Induction of apoptosis in resveratrol-induced human lung A549 cells assessed as decrease in pAkt level at Thr308 measured by immunoblotting method
A549 [2] = assay: Induction of apoptosis in resveratrol-induced human lung A549 cells at 100 nM assessed as increase in cleaved caspase-3 expression measured by immunoblotting method
A549 [3] = assay: Induction of apoptosis in resveratrol-induced human lung A549 cells assessed as decrease in Cyclin D1 level measured by immunoblotting method
A549 [4] = assay: Induction of apoptosis in resveratrol-induced human lung A549 cells assessed as decrease in Cyclin E1 level measured by immunoblotting method
A549 [5] = assay: Antiproliferative activity against resveratrol-induced human lung A549 cells at 100 nM measured after 5 days by CCK-8 assay; conditions: time 5.0 day
ASTC-a-1 [6] = assay: Induction of apoptosis in resveratrol-induced human lung ASTC-a-1 cells at 100 nM assessed as increase in cleaved caspase-3 expression measured by immunoblotting method
A549 [7] = assay: Induction of apoptosis in resveratrol-induced human lung A549 cells assessed as decrease in pAkt level at Ser473 measured by immunoblotting method
ASTC-a-1 [8] = assay: Antiproliferative activity against resveratrol-induced human lung ASTC-a-1 cells at 100 nM measured after 5 days by CCK-8 assay; conditions: time 5.0 day
A549 [9] = assay: Induction of apoptosis in resveratrol-induced human lung A549 cells assessed as decrease in pGSK3beta level at Ser9 measured by immunoblotting method

Measured: Activity

O=C(NC[C@H](O)CN1CCc2ccccc2C1)c1ccnc(NC2CCC2)c1
active: all assays above
